From US20090215805A1, “4-Heteroaryl Pyrimidine Derivatives and use thereof as Protein Kinase Inhibitors” (Cyclacel Limited, priority 2005, published 2009) come the findings set out here.

Each structure is given as a SMILES string. pEC50, pIC50, pKi: −log10 of the molar value.

Chain of DM Aur A (Dm AK-A) (Q9VGF9 entry or part of it): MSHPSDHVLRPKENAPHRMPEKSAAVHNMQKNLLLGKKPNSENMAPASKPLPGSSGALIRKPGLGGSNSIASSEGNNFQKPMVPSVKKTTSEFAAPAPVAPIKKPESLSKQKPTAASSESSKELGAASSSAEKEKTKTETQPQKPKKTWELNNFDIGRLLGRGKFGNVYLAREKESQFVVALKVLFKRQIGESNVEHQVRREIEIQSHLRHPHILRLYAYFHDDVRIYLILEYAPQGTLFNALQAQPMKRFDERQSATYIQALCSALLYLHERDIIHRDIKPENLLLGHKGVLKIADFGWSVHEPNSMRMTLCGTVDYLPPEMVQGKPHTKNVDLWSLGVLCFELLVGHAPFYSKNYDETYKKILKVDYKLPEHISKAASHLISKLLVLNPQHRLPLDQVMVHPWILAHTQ
Chain of GSK3 (GSK-3β) (A0A5F9DUX8 entry or part of it): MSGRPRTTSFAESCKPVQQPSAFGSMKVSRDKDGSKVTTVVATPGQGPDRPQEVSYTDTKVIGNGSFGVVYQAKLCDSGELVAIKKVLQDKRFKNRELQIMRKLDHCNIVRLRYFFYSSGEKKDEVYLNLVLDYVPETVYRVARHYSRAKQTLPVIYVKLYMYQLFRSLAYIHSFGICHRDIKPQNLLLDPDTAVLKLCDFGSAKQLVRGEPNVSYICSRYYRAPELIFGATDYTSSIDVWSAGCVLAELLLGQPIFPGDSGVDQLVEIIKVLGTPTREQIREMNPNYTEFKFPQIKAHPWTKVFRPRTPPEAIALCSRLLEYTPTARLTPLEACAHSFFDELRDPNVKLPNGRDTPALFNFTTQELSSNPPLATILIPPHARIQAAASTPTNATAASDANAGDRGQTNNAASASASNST

The first data set addresses DM Aur A (Dm AK-A) (Drosophila melanogaster, UniProt Q9VGF9). As to the kind of experiment: Dm aurora A kinase assay (DM Aur A / Dm AK-A). It counts as biochemical. The note with it: in vitro kinase assay. As for the experimental part:
(§1) The compounds of the invention above were investigated for their ability to inhibit the enzymatic activity of various protein kinases. This was achieved by measurement of incorporation of radioactive phosphate from ATP into appropriate polypeptide substrates. Recombinant protein kinases and kinase complexes were produced or obtained commercially. Assays were performed using 96-well plates and appropriate assay buffers (typically 25 mM β-glycerophosphate, 20 mM MOPS, 5 mM EGTA, 1 mM DTT, 1 mM […], pH 7.4), into which were added 2-4 μg of active enzyme with appropriate substrates. The reactions were initiated by addition of Mg/ATP mix (15 mM MgCl2+100 μM ATP with 30-50 kBq per well of [γ-^32P]-ATP) and mixtures incubated as required at 30° C. Reactions were stopped on ice, followed by filtration through p81 filterplates or GF/C filterplates (Whatman Polyfiltronics, Kent, UK). After washing 3 times with 75 mM aq orthophosphoric acid, plates were dried, scintillant added and incorporated radioactivity measured in a scintillation counter (TopCount, Packard Instruments, Pangbourne, Berks, UK). Compounds for kinase assay were made up as 10 mM stocks in DMSO and diluted into 10% DMSO in assay buffer. Data was analysed using curve-fitting software (GraphPad Prism version 3.00 for Windows, GraphPad Software, San Diego Calif. USA) to determine IC50 values (concentration of test compound which inhibits kinase activity by 50%).
In general, pKi refers to the Ki on a negative log10 scale, so that one unit is a factor of ten. Low values mean a large Ki, high ones a small Ki. `CCOC(=O)c1[nH]c(C)c(-c2ccnc(Nc3ccc(O)c([N+](=O)[O-])c3)n2)c1-c1ccccc1` [Compound 11] showed a pKi of 6.56.

As for `Cc1[nH]cc(-c2ccccc2)c1-c1ccnc(Nc2cccc([N+](=O)[O-])c2)n1` [Compound 13], the pKi is 6.47.

On to `Cc1[nH]cc(-c2ccccc2)c1-c1ccnc(Nc2ccc(O)cc2)n1` [Compound 15], for which the negative logarithm of the Ki (pKi) is 6.22.

For the compound `Cc1[nH]c(CN(C)C)c(C)c1-c1ccnc(Nc2cccc([N+](=O)[O-])c2)n1` [Compound 17], the pKi was 7.40.

Compound `COc1ccc(Nc2nccc(-c3c(C)[nH]c(C#N)c3C)n2)cn1` [Compound 28] showed a pKi of 6.75.

Staying with this data set, now noted: values without asterisk (DM aurora A).
By pIC50 is commonly meant the IC50 on a negative log10 scale, so that one unit is a factor of ten. Low readings indicate a high IC50, high ones a low IC50. In turn, `CCOC(=O)c1[nH]c(C)c(-c2ccnc(Nc3ccc(O)c([N+](=O)[O-])c3)n2)c1-c1ccccc1` [Compound 11] showed a pIC50 of 6.15.

Regarding `Cc1[nH]cc(-c2ccccc2)c1-c1ccnc(Nc2cccc([N+](=O)[O-])c2)n1` [Compound 13], the pIC50 is 6.07.

Consider `Cc1[nH]cc(-c2ccccc2)c1-c1ccnc(Nc2ccc(O)cc2)n1` [Compound 15], for which the negative logarithm of the IC50 (pIC50) was 5.81. Compared with the last compound, the pIC50 is 0.26 log units lower.

As to `Cc1[nH]c(CN(C)C)c(C)c1-c1ccnc(Nc2cccc([N+](=O)[O-])c2)n1` [Compound 17], the pIC50 is 6.99. Compared with the last compound, the pIC50 is 1.18 log units higher.

`COc1ccc(Nc2nccc(-c3c(C)[nH]c(C#N)c3C)n2)cn1` [Compound 28]: the pIC50 was 6.34.

For the next data set, the target named is CDK2/E (Homo sapiens, UniProt P24941). As to the kind of experiment: CDK2/E in vitro kinase assay. Format: biochemical.
Conditions: not given
As for the experimental part: as §1
The compound `Cc1[nH]c(CN(C)C)c(C)c1-c1ccnc(Nc2cccc([N+](=O)[O-])c2)n1` [Compound 17] gave a negative-log Ki (pKi) of 7.48.

On to `COc1ccc(Nc2nccc(-c3c(C)[nH]c(C#N)c3C)n2)cn1` [Compound 28], for which the pKi was 6.73.

Another data set addresses GSK3 (GSK-3β) (Oryctolagus cuniculus, UniProt A0A5F9DUX8). As to the kind of experiment: GSK-3 kinase assay. The note with it: in vitro kinase assay. It counts as biochemical, rabbit. The procedure: GSK-3 was obtained from New England Biolabs (UK) Ltd., Hitchin, Herts. The recombinant enzyme was isolated from a strain of E. coli that carries a clone expressing GSK-3β derived from a rabbit skeletal muscle cDNA library [Wang, Q. M.; Fiol, C. J.; DePaoli-Roach, A. A.; Roach, P. J. J. Biol. Chem., 1994, 269, 14566]. Inhibition of GSK-3 function was assessed by measurement of phosphorylation of CREB phosphopeptide KRREILSRRPphosphoSYR in the presence of test compounds. Using a 96-well assay format, GSK3 (7.5 U) was incubated for 30 min at 30° C. in a total volume of 25 μL in 20 mM MOPS pH 7.2, 25 mM β-glycerophosphate, 5 mM EGTA, 1 mM DTT, 1 mM […], 40 μM CREB peptide, 15 mM MgCl2 and 100 μM ATP (containing 0.25 μCi [γ-^32P]-ATP) in the presence of varying concentrations of test compound. The samples were transferred to 96-well p81 filter plates (Whatman Polyfiltronics, Kent, UK), and the plates were washed 4 times with 200 μL/well of 75 mM aq orthophosphoric acid. Scintillation liquid (50 μL) was added to each well, and incorporated radioactivity for each sample was determined using a scintillation counter (TopCount, Packard Instruments, Pangboume, Berks, UK).
In the case of `Cc1[nH]cc(-c2ccccc2)c1-c1ccnc(Nc2cccc([N+](=O)[O-])c2)n1` [Compound 13], the pKi was 6.68.

Consider `Cc1[nH]cc(-c2ccccc2)c1-c1ccnc(Nc2ccc(O)cc2)n1` [Compound 15], for which the negative-log Ki (pKi) is 6.88. This pKi lies 0.20 log units higher than the previous one.

Turning to `Cc1[nH]c(CN(C)C)c(C)c1-c1ccnc(Nc2cccc([N+](=O)[O-])c2)n1` [Compound 17], the pKi was 5.49.

The compound `COc1ccc(Nc2nccc(-c3c(C)[nH]c(C#N)c3C)n2)cn1` [Compound 28] showed a pKi of 8.30.

The next data set concerns Glycogen synthase activation in HEK293 cells. As to the kind of experiment: Glycogen synthase activation in HEK293 cells. It counts as cell-based. The note with it: Homo sapiens, 1.5 h, 90 minutes treatment. As for the experimental part:
(§2) HEK293 cells, mouse adipocytes or rat myotubes were treated in 10 cm Petri dishes with different concentrations of GSK3 inhibitors for 90 minutes. At the end of the treatment period the cells were washed and scraped in ice cold PBS buffer supplemented with 20 mM NaF. The cells were pelleted by centrifugation and lysed in 300 μl buffer-50 mM HEPES pH 7.5, 10 mM EDTA, 100 mM NaF, 5 mM DTT, protease inhibitor cocktail (Sigma). After incubation for 30 min on ice the samples were cleared by centrifugation. The activity of glycogen synthase was determined in the soluble fraction at two different concentrations of […]-low (0.1 mM) and high (10 mM). The reaction was carried out for 30 min in a buffer—50 mM Tris pH 7.8, 20 mM EDTA, 25 mM NaF, S mM DTT. The reaction mixture (total volume of 90 μl) consisted as well of 1% glycogen, 0.3 mM UDP-glucose and 0.06 μCi ^14C-UDP-glucose. Reaction was stopped by transfer of 70 μl to a GFC 96-well filter plate, containing 140 μl 100% ethanol an the glycogen was allowed to precipitate for 1 h at 4° C. The wells were washed 2 times with 200 μl 66% ethanol and than let to dry. Subsequently, 100 μl of scintillation liquid were added, and plates were sealed and counted in a Packard Topcounter. Glycogen synthase activation was calculated as the ratio between the incorporation of labelled ^14C-UDP-glucose in glycogen at low and high concentration of […] (fractional velocity).
A word on the pEC50: it is the negative decadic logarithm of the EC50, by convention in mol/L. Turning to `COc1ccc(Nc2nccc(-c3c(C)[nH]c(C#N)c3C)n2)cn1` [Compound 28], the pEC50 was 5.18.

For a further data set, the system named is Glycogen synthase activation in mouse adipocytes (3T3-L1). As to the kind of experiment: Glycogen synthase activation in mouse adipocytes (3T3-L1). Format: cell-based. The note with it: 1.5 h; 3T3-L1 mouse adipocytes, 90 minutes treatment. As for the experimental part:
3T3-L1 mouse pre-adipocytes were grown in DMEM supplemented with 10% FCS and pen/strep until fully confluent. Cell differentiation was initiated by the addition of 0.5 mM IBMX (2-isobutyl-1-methylxanthine), 0.25 μM Dexamethasone and 1 μg/ml insulin into the growth media. The differentiation media was replaced after 4 days and 7 days after the initiation of differentiation the cells were grown for additional 3 days in DMEM, 10% FCS and pen/strep.
as §2
With `COc1ccc(Nc2nccc(-c3c(C)[nH]c(C#N)c3C)n2)cn1` [Compound 28], the negative logarithm of the EC50 (pEC50) was 5.10.

Another data set deals with Glycogen synthase activation in rat myotubes (L6.G8.C5). As to the kind of experiment: Glycogen synthase activation in rat myotubes (L6.G8.C5). The note with it: Myotube, 1.5 h, 90 minutes treatment. Format: cell-based. As for the experimental part: Rat myotubes were differentiated from L6.G8.C5 myoblasts, which were grown in DMEM, 10% FCS and pen/strep until confluent. The media was then removed, cells washed with PBS and differentiation media containing minimal essential media eagles (alpha modified) supplemented with 2% FCS and pen/strep. The cells were cultured for 3-4 days until >90% of cells have formed multinucleated myotubes. The differentiated cells were then used for determination of glycogen synthase activation after treatment with GSK3 inhibitors.
as §2
`COc1ccc(Nc2nccc(-c3c(C)[nH]c(C#N)c3C)n2)cn1` [Compound 28] had a negative logarithm of the EC50 (pEC50) of 5.05.

In a further data set the test system is PEPCK gene expression in HEPG2 cells. As to the kind of experiment: PEPCK gene expression in HEPG2 cells - QPCR assay. Format: cell-based. The note with it: HEPG2, Dex/cAMP +, concentration 1 uM; percentage of the dexametasone-induced stimulation. As for the experimental part: PEPCK gene expression was studied in HEPG2 (hepatocarcinoma) cells, seeded in 6-well plate at […] cells per well. The cells were serum starved for 20 hours before treatment with dexamethasone/cAMP (stimulator of PEPCK gene expression) in the presence or absence of insulin or GSK3 inhibitors. After 3 hours treatment the cells were harvested, lysed and RNA extracted using mini RNeasy spin column (Quiagen). The primer set COD2063/COD2064 (350 bp) was used for PEPCK gene. The one step RT-PCR was carried out using the Lightcycler-RNA Master SYBR Green 1 Kit. The qPCR analysis calculates the number of the PCR cycles required for the PCR product amplification to reach logarithmic phase. QPCR for a housekeeping gene—28S—was used for normalisation. PEPCK is a key enzyme in gluconeogenesis in the liver and it is known be negatively regulated by insulin via inhibition of GSK3. The effect of GSK3 inhibitors on PEPCK gene expression was studied in HEPG2 (hepatocarcinoma) cells treated with dexametasone/cAMP (a positive regulator of PEPCK gene expression) in the presence or absence of insulin or GSK3 inhibitors.
On to `COc1ccc(Nc2nccc(-c3c(C)[nH]c(C#N)c3C)n2)cn1` [Compound 28], for which the “% PEPCK activity” value is 48.4 ± 7.3%.

Staying with this data set, now noted: HEPG2, Dex/cAMP +, concentration 10 uM; percentage of the dexametasone-induced stimulation.
Take `COc1ccc(Nc2nccc(-c3c(C)[nH]c(C#N)c3C)n2)cn1` [Compound 28]: the “% PEPCK activity” value is listed as 11.7 ± 1.3%.

System in a further data set: not given
Assay: not given
Conditions: not given
The melting point is the temperature, or range, at which the solid turns liquid. `CCOC(=O)c1[nH]c(C)c(-c2ccnc(Nc3ccc(O)c([N+](=O)[O-])c3)n2)c1-c1ccccc1` [Compound 11] had a melting point of 202 to 205 °C.

Turning to `Cc1[nH]cc(-c2ccccc2)c1-c1ccnc(Nc2cccc([N+](=O)[O-])c2)n1` [Compound 13], the melting point is 201 to 203 °C.

Regarding `Cc1[nH]cc(-c2ccccc2)c1-c1ccnc(Nc2ccc(O)cc2)n1` [Compound 15], the melting point lay in the range of 194.1 to 195.6 °C.

In turn, `Cc1[nH]c(CN(C)C)c(C)c1-c1ccnc(Nc2cccc([N+](=O)[O-])c2)n1` [Compound 17] came in with a melting point of 88.3 to 92.6 °C.
